# From PMC11837542, “Two NADPH-dependent 2-ketogluconate reductases involved in 2-ketogluconate assimilation in Gluconobacter sp. strain CHM43” (Applied and Environmental Microbiology, 2025)
# Columns and labels:
# GLF_1777 (2KGR) [1] = test system: T1, GLF_1777 (2KGR); test: NADH oxidation at […] nm, soluble cell extract of overexpressing strain; assay type: biochemical, Gluconobacter sp. CHM43; details: co-substrate 2KG; standard assay 10 mM K-2-ketogluconate, 50 mM Na-acetate pH 6.0, 25°C
# T1 construct: untagged, full-length gene on plasmid pSKR57 in Gluconobacter sp; CHM43 delta-GLF_0478 (strain SKR104)
# GLF_1777 (2KGR) [2] = test system: T1, GLF_1777 (2KGR); test: NADPH oxidation at […] nm, soluble cell extract of overexpressing strain; assay type: biochemical, Gluconobacter sp. CHM43; details: co-substrate 2KG; standard assay 10 mM K-2-ketogluconate, 50 mM Na-acetate pH 6.0, 25°C
Structure (SMILES),Km (GLF_1777 (2KGR) [1]) [µM],Km (GLF_1777 (2KGR) [2]) [µM]
NC(=O)C1=CN([C@@H]2O[C@H](COP(=O)(O)OP(=O)(O)OC[C@H]3O[C@@H](n4cnc5c(N)ncnc54)[C@H](O)[C@@H]3O)[C@@H](O)[C@H]2O)C=CC1 [NADH],100 ± 9,–
NC(=O)C1=CN([C@@H]2O[C@H](COP(=O)(O)OP(=O)(O)OC[C@H]3O[C@@H](n4cnc5c(N)ncnc54)[C@H](OP(=O)(O)O)[C@@H]3O)[C@@H](O)[C@H]2O)C=CC1 [NADPH],–,3 ± 0.4
